# Earlier results in patent US7932388B2, “Isotopically enriched N-substituted piperazines and methods for the preparation thereof” (DH Technologies Development Pte. Ltd., priority 2004, dated 2011).
# Conditions: alcohol (leaving group) of the trifluoroacetate ester; no method or conditions printed
substance,measurement,value
N-hydroypyrrolidinone [NHP],pKa,9.38
